{"source": "paper PMC5061470", "about": "“Promiscuous targeting of bromodomains by bromosporine identifies BET proteins as master regulators of primary transcription response in leukemia” (Science Advances, 2016)", "key": {"BRD4(1)": {"target": "BRD4(1) (Homo sapiens, UniProt O60885)", "assay_type": "binding"}, "BPTF": {"target": "BPTF (Homo sapiens, UniProt Q12830)", "assay_type": "binding"}, "GCN5L2": {"target": "GCN5L2 (Homo sapiens, UniProt Q92830)", "sequence (Q92830 728-832)": "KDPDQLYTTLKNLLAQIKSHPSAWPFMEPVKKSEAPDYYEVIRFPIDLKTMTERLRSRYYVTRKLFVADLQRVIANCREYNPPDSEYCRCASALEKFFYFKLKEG", "assay_type": "binding", "conditions": "pH 7.5"}, "SMARCA2": {"target": "SMARCA2", "assay_type": "binding, human", "conditions": "pH 7.5"}, "SMARCA4": {"target": "SMARCA4 (Homo sapiens, UniProt P51532)", "sequence (P51532 1453-1564 limits assumed)": "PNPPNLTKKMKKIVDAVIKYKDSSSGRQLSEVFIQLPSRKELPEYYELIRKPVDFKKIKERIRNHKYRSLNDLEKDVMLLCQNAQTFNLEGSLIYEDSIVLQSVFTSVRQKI", "assay_type": "binding"}, "TAF1(2)": {"target": "T1, TAF1(2) (Homo sapiens, UniProt P21675)", "T1 construct": "Human BRDs were subcloned into bacteria-expressing vectors; made in house; host or cells: bacteria", "T1 sequence (P21675 1519-1628 limits assumed)": "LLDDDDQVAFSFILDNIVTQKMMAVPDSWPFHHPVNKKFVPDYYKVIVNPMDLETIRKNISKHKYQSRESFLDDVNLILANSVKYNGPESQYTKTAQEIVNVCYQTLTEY", "assay_type": "binding"}, "K562": {"system": "K562", "assay_type": "cell-based, human"}, "A2B (h)": {"target": "A2B (h) (Homo sapiens, UniProt P29275)", "test": "biochemical", "conditions": "read-out: % Inhibition of Control Specific Binding"}, "alpha 1B (h)": {"target": "alpha 1B (h) (Homo sapiens, UniProt P35368)", "test": "biochemical", "conditions": "read-out: % Inhibition of Control Specific Binding"}, "beta 2 (h)": {"target": "beta 2 (h) (Homo sapiens, UniProt P07550)", "test": "biochemical", "conditions": "read-out: % Inhibition of Control Specific Binding"}, "D2S (h)": {"target": "D2S (h) (Homo sapiens, UniProt P14416)", "test": "biochemical", "conditions": "read-out: % Inhibition of Control Specific Binding"}, "D3 (h)": {"target": "D3 (h) (Homo sapiens, UniProt P35462)", "test": "biochemical", "conditions": "read-out: % Inhibition of Control Specific Binding"}, "ETB (h)": {"target": "ETB (h) (Homo sapiens, UniProt P24530)", "sequence (P24530 27-442)": "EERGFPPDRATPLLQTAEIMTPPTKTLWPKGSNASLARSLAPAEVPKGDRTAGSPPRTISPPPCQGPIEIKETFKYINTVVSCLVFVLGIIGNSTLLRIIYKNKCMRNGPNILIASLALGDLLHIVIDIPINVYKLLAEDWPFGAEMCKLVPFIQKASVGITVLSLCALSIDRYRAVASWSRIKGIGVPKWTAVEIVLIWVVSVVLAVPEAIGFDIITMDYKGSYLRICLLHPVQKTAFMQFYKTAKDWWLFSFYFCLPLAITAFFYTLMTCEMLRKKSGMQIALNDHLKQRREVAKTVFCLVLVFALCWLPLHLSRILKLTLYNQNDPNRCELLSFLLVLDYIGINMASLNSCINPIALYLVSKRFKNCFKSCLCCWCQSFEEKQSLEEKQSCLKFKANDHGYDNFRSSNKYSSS", "test": "biochemical", "conditions": "read-out: % Inhibition of Control Specific Binding"}, "GABAB(1b) (h)": {"target": "GABAB(1b) (h) (Homo sapiens, UniProt Q9UBS5)", "test": "biochemical", "conditions": "read-out: % Inhibition of Control Specific Binding"}, "[1]": {"target": "glycine (strychnine-insensitive) (Rattus norvegicus, UniProt P35439)", "test": "biochemical", "conditions": "read-out: % Inhibition of Control Specific Binding"}, "CCR2 (h)": {"target": "CCR2 (h) (Homo sapiens, UniProt P41597)", "test": "CEREP binding, agonist radioligand", "conditions": "read-out: % Inhibition of Control Specific Binding"}, "H4 (h)": {"target": "H4 (h) (Homo sapiens, UniProt Q9H3N8)", "sequence (Q9H3N8 whole entry)": "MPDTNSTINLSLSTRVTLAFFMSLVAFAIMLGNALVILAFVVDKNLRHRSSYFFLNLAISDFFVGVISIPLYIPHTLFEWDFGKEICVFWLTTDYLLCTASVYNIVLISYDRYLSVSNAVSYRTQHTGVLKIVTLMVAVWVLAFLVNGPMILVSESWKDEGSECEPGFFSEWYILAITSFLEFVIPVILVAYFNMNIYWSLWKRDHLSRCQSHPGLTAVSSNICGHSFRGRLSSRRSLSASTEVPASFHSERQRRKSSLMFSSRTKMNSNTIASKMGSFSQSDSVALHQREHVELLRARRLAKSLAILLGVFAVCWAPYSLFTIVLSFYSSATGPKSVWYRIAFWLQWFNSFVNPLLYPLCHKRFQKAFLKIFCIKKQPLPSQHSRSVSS", "test": "biochemical", "assay_type": "binding", "conditions": "read-out: % Inhibition of Control Specific Binding"}, "MC1": {"target": "MC1 (Mus musculus, UniProt Q01727)", "sequence (Q01727 whole entry)": "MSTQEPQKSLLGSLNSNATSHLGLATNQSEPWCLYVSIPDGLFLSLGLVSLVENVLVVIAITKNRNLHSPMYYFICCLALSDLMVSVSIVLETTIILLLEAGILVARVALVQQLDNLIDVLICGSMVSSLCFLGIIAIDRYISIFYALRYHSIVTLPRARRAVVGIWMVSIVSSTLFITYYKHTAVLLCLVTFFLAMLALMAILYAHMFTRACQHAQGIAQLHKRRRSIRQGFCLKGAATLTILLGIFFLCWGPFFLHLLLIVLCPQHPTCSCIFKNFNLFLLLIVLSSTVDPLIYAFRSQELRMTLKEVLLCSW", "test": "biochemical", "conditions": "read-out: % Inhibition of Control Specific Binding"}, "MAO-A": {"target": "MAO-A (Rattus norvegicus, UniProt P21396)", "test": "biochemical", "conditions": "read-out: % Inhibition of Control Specific Binding"}, "M1 (h)": {"target": "M1 (h) (Homo sapiens, UniProt P11229)", "test": "biochemical", "conditions": "read-out: % Inhibition of Control Specific Binding"}, "M4 (h)": {"target": "M4 (h) (Homo sapiens, UniProt P08173)", "test": "biochemical", "conditions": "read-out: % Inhibition of Control Specific Binding"}, "NK1 (h)": {"target": "NK1 (h) (Homo sapiens, UniProt P25103)", "test": "biochemical", "conditions": "read-out: % Inhibition of Control Specific Binding"}, "[2]": {"target": "N neuronal alpha 4beta 2 (h) (Homo sapiens, UniProt P17787+P43681)", "test": "biochemical", "conditions": "read-out: % Inhibition of Control Specific Binding"}, "N muscle-type (h)": {"target": "N muscle-type (h) (Homo sapiens, UniProt P02708+P07510+Q07001)", "sequence (P07510 23-517)": "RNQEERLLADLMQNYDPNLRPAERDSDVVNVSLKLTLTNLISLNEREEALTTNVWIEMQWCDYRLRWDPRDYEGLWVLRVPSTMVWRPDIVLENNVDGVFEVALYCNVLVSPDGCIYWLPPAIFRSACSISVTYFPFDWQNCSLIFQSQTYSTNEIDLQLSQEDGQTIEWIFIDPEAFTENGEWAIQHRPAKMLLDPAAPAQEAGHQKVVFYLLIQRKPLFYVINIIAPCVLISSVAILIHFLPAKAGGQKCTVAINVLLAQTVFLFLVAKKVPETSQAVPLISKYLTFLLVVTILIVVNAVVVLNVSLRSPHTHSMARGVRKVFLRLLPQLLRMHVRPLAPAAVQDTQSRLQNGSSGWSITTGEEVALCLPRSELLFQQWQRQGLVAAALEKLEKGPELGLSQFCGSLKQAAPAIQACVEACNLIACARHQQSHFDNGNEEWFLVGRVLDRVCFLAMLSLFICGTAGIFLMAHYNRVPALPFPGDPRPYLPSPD", "sequence (Q07001 22-517)": "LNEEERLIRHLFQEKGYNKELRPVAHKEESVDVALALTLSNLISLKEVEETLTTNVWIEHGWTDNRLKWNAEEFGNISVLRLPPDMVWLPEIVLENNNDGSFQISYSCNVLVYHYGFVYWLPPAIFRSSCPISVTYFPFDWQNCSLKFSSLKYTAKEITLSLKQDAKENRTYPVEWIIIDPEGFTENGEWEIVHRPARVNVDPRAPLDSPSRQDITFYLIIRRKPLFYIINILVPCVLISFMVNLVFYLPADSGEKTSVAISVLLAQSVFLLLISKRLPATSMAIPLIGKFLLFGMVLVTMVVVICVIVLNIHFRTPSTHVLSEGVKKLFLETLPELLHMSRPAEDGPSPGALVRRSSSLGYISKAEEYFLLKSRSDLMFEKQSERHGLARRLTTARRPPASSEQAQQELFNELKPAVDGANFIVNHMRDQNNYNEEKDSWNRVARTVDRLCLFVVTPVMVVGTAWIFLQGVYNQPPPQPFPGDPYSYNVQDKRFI", "sequence (P02708 21-457)": "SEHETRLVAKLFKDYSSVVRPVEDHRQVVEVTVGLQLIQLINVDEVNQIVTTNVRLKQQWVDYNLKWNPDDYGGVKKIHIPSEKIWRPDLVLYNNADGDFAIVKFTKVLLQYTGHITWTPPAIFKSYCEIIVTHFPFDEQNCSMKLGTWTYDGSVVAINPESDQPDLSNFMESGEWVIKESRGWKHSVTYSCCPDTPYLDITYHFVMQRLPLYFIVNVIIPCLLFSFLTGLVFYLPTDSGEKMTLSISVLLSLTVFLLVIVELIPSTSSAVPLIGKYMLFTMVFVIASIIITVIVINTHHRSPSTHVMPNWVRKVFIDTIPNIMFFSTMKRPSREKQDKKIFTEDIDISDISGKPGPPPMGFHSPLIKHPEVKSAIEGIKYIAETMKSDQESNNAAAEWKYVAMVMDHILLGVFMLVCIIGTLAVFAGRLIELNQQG", "sequence (P11230 24-501, further chain)": "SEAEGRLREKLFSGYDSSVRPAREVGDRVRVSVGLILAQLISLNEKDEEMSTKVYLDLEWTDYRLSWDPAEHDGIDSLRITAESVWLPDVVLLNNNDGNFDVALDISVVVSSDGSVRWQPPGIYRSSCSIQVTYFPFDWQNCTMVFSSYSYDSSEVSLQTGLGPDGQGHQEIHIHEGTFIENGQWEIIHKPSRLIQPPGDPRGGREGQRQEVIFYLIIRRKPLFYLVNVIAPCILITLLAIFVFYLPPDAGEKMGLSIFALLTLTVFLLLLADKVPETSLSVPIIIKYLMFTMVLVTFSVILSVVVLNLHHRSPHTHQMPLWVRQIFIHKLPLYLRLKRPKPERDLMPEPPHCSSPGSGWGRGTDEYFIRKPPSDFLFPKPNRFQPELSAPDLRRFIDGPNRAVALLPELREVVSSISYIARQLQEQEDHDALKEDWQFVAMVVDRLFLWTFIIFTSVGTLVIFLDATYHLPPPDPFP", "test": "biochemical", "conditions": "read-out: % Inhibition of Control Specific Binding"}, "kappa (KOP)": {"target": "kappa (KOP) (Rattus norvegicus, UniProt P34975)", "sequence (P34975 whole entry)": "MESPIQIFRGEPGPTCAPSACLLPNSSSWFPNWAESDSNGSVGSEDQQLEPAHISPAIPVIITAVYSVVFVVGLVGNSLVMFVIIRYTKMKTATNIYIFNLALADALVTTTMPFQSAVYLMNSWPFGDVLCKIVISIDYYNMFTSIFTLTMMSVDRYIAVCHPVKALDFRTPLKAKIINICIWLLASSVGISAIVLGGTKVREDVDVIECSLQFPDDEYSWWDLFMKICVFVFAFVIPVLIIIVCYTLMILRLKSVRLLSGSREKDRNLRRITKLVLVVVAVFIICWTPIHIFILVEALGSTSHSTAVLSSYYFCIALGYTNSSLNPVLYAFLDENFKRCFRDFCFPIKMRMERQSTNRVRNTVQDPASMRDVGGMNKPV", "test": "biochemical", "conditions": "read-out: % Inhibition of Control Specific Binding"}, "PCP": {"system": "PCP", "assay_type": "binding"}, "5-HT1D": {"target": "5-HT1D (Rattus norvegicus, UniProt P28565)", "sequence (P28565 whole entry)": "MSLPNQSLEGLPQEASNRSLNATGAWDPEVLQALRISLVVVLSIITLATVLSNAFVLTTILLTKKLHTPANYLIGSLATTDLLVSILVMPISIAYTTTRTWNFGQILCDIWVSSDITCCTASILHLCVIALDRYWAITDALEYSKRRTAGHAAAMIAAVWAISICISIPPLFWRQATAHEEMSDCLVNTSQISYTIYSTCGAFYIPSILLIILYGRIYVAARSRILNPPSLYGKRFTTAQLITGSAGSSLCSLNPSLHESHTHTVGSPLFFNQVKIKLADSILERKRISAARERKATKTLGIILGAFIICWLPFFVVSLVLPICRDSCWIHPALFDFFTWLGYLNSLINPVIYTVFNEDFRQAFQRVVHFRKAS", "test": "biochemical", "conditions": "read-out: % Inhibition of Control Specific Binding"}, "5-HT2C (h)": {"target": "5-HT2C (h) (Homo sapiens, UniProt P28335)", "test": "biochemical", "assay_type": "binding", "conditions": "read-out: % Inhibition of Control Specific Binding"}, "5-HT4e (h)": {"target": "5-HT4e (h) (Homo sapiens, UniProt Q13639)", "test": "biochemical", "conditions": "read-out: % Inhibition of Control Specific Binding"}, "sst1 (h)": {"target": "sst1 (h) (Homo sapiens, UniProt P30872)", "sequence (P30872 whole entry)": "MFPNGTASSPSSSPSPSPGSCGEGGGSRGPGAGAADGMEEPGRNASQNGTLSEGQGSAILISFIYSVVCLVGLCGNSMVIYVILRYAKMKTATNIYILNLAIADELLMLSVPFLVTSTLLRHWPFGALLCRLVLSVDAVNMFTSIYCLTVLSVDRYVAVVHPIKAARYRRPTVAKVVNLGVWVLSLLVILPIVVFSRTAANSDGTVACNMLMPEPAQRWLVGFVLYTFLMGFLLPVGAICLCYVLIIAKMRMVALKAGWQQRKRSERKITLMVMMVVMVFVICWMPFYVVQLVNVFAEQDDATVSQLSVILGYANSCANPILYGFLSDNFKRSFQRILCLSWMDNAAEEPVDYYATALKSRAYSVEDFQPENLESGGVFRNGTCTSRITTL", "test": "biochemical", "conditions": "read-out: % Inhibition of Control Specific Binding"}, "[3]": {"target": "Ca2+ channel (L, dihydropyridine site) (Rattus norvegicus, UniProt P22002)", "test": "biochemical", "conditions": "read-out: % Inhibition of Control Specific Binding"}, "Ca2+ channel (N)": {"target": "Ca2+ channel (N) (Rattus norvegicus, UniProt Q02294)", "test": "biochemical", "assay_type": "binding", "conditions": "read-out: % Inhibition of Control Specific Binding"}, "[4]": {"target": "choline transporter (CHT1) (h) (Homo sapiens, UniProt Q9GZV3)", "test": "biochemical", "assay_type": "binding", "conditions": "read-out: % Inhibition of Control Specific Binding"}, "APJ (apelin) (h)": {"target": "APJ (apelin) (h) (Homo sapiens, UniProt P35414)", "test": "biochemical", "conditions": "read-out: % Inhibition of Control Specific Binding"}, "CCK2 (CCKB) (h)": {"target": "CCK2 (CCKB) (h) (Homo sapiens, UniProt P32239)", "test": "biochemical", "conditions": "read-out: % Inhibition of Control Specific Binding"}, "H1 (h)": {"target": "H1 (h) (Homo sapiens, UniProt P35367)", "test": "biochemical", "conditions": "read-out: % Inhibition of Control Specific Binding"}, "MT1 (ML1A) (h)": {"target": "MT1 (ML1A) (h) (Homo sapiens, UniProt P48039)", "test": "biochemical", "conditions": "read-out: % Inhibition of Control Specific Binding"}, "FP (h)": {"target": "FP (h) (Homo sapiens, UniProt P43088)", "sequence (P43088 whole entry)": "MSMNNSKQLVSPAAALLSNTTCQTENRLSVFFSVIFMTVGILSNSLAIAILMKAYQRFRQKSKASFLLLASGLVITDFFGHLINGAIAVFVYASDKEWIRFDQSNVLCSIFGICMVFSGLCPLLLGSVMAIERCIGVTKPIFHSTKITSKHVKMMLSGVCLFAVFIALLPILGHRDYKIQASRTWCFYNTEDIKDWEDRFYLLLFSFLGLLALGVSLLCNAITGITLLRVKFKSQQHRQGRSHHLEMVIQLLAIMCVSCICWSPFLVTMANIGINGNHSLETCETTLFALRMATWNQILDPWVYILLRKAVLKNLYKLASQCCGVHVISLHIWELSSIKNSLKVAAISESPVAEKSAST", "test": "biochemical", "conditions": "read-out: % Inhibition of Control Specific Binding"}, "[5]": {"target": "norepinephrine transporter (h) (Homo sapiens, UniProt P23975)", "test": "biochemical", "conditions": "read-out: % Inhibition of Control Specific Binding"}}}
{"molecule": "CCOC(=O)Nc1cc(-c2ccc(C)c(NS(C)(=O)=O)c2)nn2c(C)nnc12", "note": "[BSP, ethyl (3-methyl-6-(4-methyl-3-(methylsulfonamido)phenyl)-[1,2,4]triazolo[4,3-b]pyridazin-8-yl)carbamate]", "values": [{"measurement": "N", "setting": "BRD4(1)", "result": "0.94 ± 0.002"}, {"measurement": "TΔS", "setting": "BRD4(1)", "result": -1.36, "unit": "kcal/mol"}, {"measurement": "ΔH^obs", "setting": "BRD4(1)", "result": "-11.09 ± 0.038", "unit": "kcal/mol"}, {"measurement": "N", "setting": "BPTF", "result": "1.07 ± 0.005"}, {"measurement": "TΔS", "setting": "BPTF", "result": -3.28, "unit": "kcal/mol"}, {"measurement": "ΔH^obs", "setting": "BPTF", "result": "-10.09 ± 0.074", "unit": "kcal/mol"}, {"measurement": "KD", "setting": "GCN5L2", "result": "Weak binding"}, {"measurement": "KD", "setting": "SMARCA2", "result": "Weak binding"}, {"measurement": "N", "setting": "SMARCA4", "result": "0.99 ± 0.055"}, {"measurement": "TΔS", "setting": "SMARCA4", "result": -2.84, "unit": "kcal/mol"}, {"measurement": "ΔG", "setting": "SMARCA4", "result": -6.21, "unit": "kcal/mol"}, {"measurement": "ΔH^obs", "setting": "SMARCA4", "result": "-9.05 ± 0.580", "unit": "kcal/mol"}, {"measurement": "N", "setting": "TAF1(2)", "result": "0.98 ± 0.003"}, {"measurement": "TΔS", "setting": "TAF1(2)", "result": -3.80, "unit": "kcal/mol"}, {"measurement": "ΔG", "setting": "TAF1(2)", "result": -10.25, "unit": "kcal/mol"}, {"measurement": "ΔH^obs", "setting": "TAF1(2)", "result": "-14.05 ± 0.095", "unit": "kcal/mol"}, {"measurement": "effect on cell cycle", "setting": "K562", "result": "little effect on cell cycle"}, {"measurement": "inhibition at 10 µM", "setting": "A2B (h)", "result": -5, "unit": "%"}, {"measurement": "inhibition at 10 µM", "setting": "alpha 1B (h)", "result": 3, "unit": "%"}, {"measurement": "inhibition at 10 µM", "setting": "beta 2 (h)", "result": 2, "unit": "%"}, {"measurement": "inhibition at 10 µM", "setting": "D2S (h)", "result": -9, "unit": "%"}, {"measurement": "inhibition at 10 µM", "setting": "D3 (h)", "result": -2, "unit": "%"}, {"measurement": "inhibition at 10 µM", "setting": "ETB (h)", "result": -15, "unit": "%"}, {"measurement": "inhibition at 10 µM", "setting": "GABAB(1b) (h)", "result": 13, "unit": "%"}, {"measurement": "inhibition at 10 µM", "setting": "[1]", "result": 6, "unit": "%"}, {"measurement": "inhibition at 10 µM", "setting": "CCR2 (h)", "result": -8, "unit": "%"}, {"measurement": "inhibition at 10 µM", "setting": "H4 (h)", "result": 1, "unit": "%"}, {"measurement": "inhibition at 10 µM", "setting": "MC1", "result": 2, "unit": "%"}, {"measurement": "inhibition at 10 µM", "setting": "MAO-A", "result": 7, "unit": "%"}, {"measurement": "inhibition at 10 µM", "setting": "M1 (h)", "result": 39, "unit": "%"}, {"measurement": "inhibition at 10 µM", "setting": "M4 (h)", "result": -6, "unit": "%"}, {"measurement": "inhibition at 10 µM", "setting": "NK1 (h)", "result": 7, "unit": "%"}, {"measurement": "inhibition at 10 µM", "setting": "[2]", "result": -7, "unit": "%"}, {"measurement": "inhibition at 10 µM", "setting": "N muscle-type (h)", "result": -7, "unit": "%"}, {"measurement": "inhibition at 10 µM", "setting": "kappa (KOP)", "result": 17, "unit": "%"}, {"measurement": "% Inhibition of Control Specific Binding", "setting": "PCP", "result": -6}, {"measurement": "inhibition at 10 µM", "setting": "5-HT1D", "result": 4, "unit": "%"}, {"measurement": "inhibition at 10 µM", "setting": "5-HT2C (h)", "result": 2, "unit": "%"}, {"measurement": "inhibition at 10 µM", "setting": "5-HT4e (h)", "result": 5, "unit": "%"}, {"measurement": "inhibition at 10 µM", "setting": "sst1 (h)", "result": -6, "unit": "%"}, {"measurement": "inhibition at 10 µM", "setting": "[3]", "result": -4, "unit": "%"}, {"measurement": "inhibition at 10 µM", "setting": "Ca2+ channel (N)", "result": 16, "unit": "%"}, {"measurement": "inhibition at 10 µM", "setting": "[4]", "result": 39, "unit": "%"}, {"measurement": "inhibition at 10 µM", "setting": "APJ (apelin) (h)", "result": -2, "unit": "%"}, {"measurement": "inhibition at 10 µM", "setting": "CCK2 (CCKB) (h)", "result": -14, "unit": "%"}, {"measurement": "inhibition at 10 µM", "setting": "H1 (h)", "result": 1, "unit": "%"}, {"measurement": "inhibition at 10 µM", "setting": "MT1 (ML1A) (h)", "result": 14, "unit": "%"}, {"measurement": "inhibition at 10 µM", "setting": "FP (h)", "result": 5, "unit": "%"}, {"measurement": "inhibition at 10 µM", "setting": "[5]", "result": -20, "unit": "%"}]}
